Assay results published in patent publication US7053228B2, “Sulfur analogues of 21-hydroxy-6,19-oxidoprogesterone (21OH-6OP) for treating excess of glucocorticoids” (Applied Research Systems ARS Holding N.V., priority 2000, dated 2006).

Key:
rat thymocytes = test: Apoptosis in rat thymocytes (annexin V-FITC/propidium iodide flow cytometry); format: cell-based; settings: early + late apoptosis
Description: On this basis, the antiglucocorticoid properties of the compounds of the present invention may be determined by examining the decrease/increase of apoptosis in rat thymocytes after treatment with a given test compounds. Regulation of apoptosis was analyzed by flow cytometry. The method consists of quantifying fluorometrically the apoptotic cells in the sample. In normal viable cells phosphatidyl serine (PS) is located on the cytoplasmic surface of the cell membrane. Upon induction of apoptosis, rapid alteration in the organization of phospholipids in most cell types occurs leading to exposure of PS on the cell surface. In vitro detection of externalized PS may be achieved through interaction with the anticoagulant annexin V. In the presence of calcium, rapid high affinity binding of annexin V to PS occurs. PS translocation to the cell surface precedes nuclear breakdown, DNA fragmentation and the appearance of most apoptosis-associated molecules making annexin V binding a marker of early-stage apoptosis. In the assay used, a fluorescein isothiocyanate (FITC) conjugate of annexin V is used allowing detection of apoptosis by flow cytometry. Since membrane permeabilization is observed in necrosis, necrotic cells will also bind annexin V-FITC. Propidium iodide is used to distinguish between viable and early apoptotic cells thus the latter will be labeled only with FITC while late apoptotic cells will be labeled with FITC and propidium iodide. An annexin V-FITC apoptosis detection kit from Oncogen Research Products (cat. No. PF032) was used following the RAPID protocol recommended by the manufacturer. Briefly, after incubation with various compounds (see below), cells were centrifuged at 2000 rpm for 5 min, the media removed and cell pellets washed with phosphate buffered saline (PBS): Cells were resuspended in the binding buffer to a density of 1×10^6 cells/ml. Binding reagent (10 μl) and annexin V/FITC (1.25 μl) were added and cells incubated for 15 min at room temperature in the dark. The cells were centrifuged and to the pellet were added binding buffer (0.5 ml) and propidium iodide (10 μl). Samples were analyzed by flow cytometry in a Cytoron Absolute cytometer (Ortho Diagnostic Systems). […] The cytograms obtained are presented in FIGS. 3a-3f, where GR-FL represents fluorescence from FITC and RD-FL represents fluorescence from propidium iodide. […] Early apoptotic cells with exposed PS but intact cell membranes appear in the […] quadrant. Necrotic or late apoptotic cells appear in the upper right quadrant. A small percentage of normal cell death may also occur, none is observed in this case.

glucocorticoid receptor = molecular target: T1, glucocorticoid receptor (Homo sapiens, UniProt P04150); test: Reporter gene assay pMMTV-Luc expression in Cos-1 line; format: cell-based; settings: test compound 10^−6 M with dexamethasone; Cos-1 cells transfected with pMMTV-Luc and pRSV-GR
T1 construct: expressed in transfected cells; host or cells: Cos-1
T1 sequence (P04150 1-777): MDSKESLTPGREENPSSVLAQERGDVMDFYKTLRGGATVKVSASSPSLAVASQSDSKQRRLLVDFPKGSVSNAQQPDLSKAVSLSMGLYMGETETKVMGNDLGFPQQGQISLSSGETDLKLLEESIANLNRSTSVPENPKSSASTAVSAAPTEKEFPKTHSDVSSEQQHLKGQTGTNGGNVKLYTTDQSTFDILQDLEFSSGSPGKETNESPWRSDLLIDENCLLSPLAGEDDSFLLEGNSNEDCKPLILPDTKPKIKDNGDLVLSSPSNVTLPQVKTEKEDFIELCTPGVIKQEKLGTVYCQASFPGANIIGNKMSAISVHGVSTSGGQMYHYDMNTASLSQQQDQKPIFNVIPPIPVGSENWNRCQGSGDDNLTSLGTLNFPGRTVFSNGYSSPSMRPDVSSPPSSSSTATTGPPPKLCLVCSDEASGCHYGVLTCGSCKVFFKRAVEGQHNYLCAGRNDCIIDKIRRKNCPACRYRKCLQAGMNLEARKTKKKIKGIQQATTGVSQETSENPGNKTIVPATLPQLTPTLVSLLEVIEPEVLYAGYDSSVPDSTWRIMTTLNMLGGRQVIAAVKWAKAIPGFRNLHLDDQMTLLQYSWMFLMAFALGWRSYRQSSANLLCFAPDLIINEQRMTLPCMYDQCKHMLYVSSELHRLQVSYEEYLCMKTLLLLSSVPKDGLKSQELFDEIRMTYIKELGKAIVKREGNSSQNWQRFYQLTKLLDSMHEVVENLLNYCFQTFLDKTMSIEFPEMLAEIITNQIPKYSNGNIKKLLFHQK
Description: vol. 7 No. 10 (1989). The assay may discriminate between gluco/antigluco- and progestin/antiprogestin-effects of the test compounds. Cells were grown on 100 mm plates with 8 ml D-MEM (Dubecco's modified Eagle's medium Gibco BRL), supplemented with 10% bovine fetal serum (Bioser), 3,7 g/l sodium bicarbonate and 100 IU/penicilin G, 100 μg/ml streptomycin, 0,25 μg amphotericin B in an atmosphere in an of 5% CO2 at 37° C. Cells were treated with 0,25% trypsin, 1 mM EDTA and were plated at a density of 5×10^5 cells/plate, in 60 mm plates. Cos-1 cells were transfected with a construct encoding the glucocorticoid receptor, and a construct with the luciferase gene under the MMTV promoter. Cells were transfected by precipitation with calcium phosphate adding 25 μl of a 2M CaCl2 solution to a solution containing 3 pmoles of vectors pMMTV-Luc and pRSV-GR encoding luciferase and the glucocorticoid receptor, respectively. […]
The transfection mixture was added dropwise to an equal volume of transfection buffer 2×BBS, containing phosphate. […] From the supernatant the luciferase activity was determined. […] Luciferase expression was assayed employing a Promega kit in partial obscurity and measured with a Junior luminometer (EG&G Berthold, Germany).
β Galactosidase was determined by hydrolysis of a phenyl galactoside. […]

uterus-PR = molecular target: T2, uterus-PR (Homo sapiens, UniProt P06401); settings: cited from earlier work
T2 construct: host or cells: uterus
T2 sequence (P06401 1-933): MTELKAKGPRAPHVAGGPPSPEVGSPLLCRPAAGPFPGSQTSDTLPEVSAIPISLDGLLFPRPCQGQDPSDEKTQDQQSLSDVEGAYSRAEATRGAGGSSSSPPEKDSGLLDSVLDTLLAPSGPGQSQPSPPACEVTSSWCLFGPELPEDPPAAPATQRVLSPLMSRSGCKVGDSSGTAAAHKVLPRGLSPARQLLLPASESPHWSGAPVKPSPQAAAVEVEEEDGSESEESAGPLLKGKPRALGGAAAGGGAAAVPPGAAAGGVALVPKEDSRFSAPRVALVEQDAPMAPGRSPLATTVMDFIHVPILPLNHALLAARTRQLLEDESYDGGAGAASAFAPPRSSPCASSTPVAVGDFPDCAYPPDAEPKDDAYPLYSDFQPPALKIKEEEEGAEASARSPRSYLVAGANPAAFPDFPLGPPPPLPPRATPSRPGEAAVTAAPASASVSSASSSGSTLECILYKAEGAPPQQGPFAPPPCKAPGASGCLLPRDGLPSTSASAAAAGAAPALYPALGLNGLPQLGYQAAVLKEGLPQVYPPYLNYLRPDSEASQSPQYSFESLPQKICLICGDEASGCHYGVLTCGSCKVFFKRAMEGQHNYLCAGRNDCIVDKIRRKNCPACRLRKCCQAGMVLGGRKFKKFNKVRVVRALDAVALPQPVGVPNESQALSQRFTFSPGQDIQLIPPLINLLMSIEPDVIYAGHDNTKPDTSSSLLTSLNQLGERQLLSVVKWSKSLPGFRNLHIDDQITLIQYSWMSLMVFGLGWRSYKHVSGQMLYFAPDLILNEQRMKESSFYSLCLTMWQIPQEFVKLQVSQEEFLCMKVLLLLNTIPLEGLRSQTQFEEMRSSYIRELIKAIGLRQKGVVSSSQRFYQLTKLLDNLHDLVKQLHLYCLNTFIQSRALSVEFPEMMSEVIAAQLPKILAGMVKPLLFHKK

kidney-MR = molecular target: T3, kidney-MR (Homo sapiens, UniProt P08235); settings: cited from earlier work
T3 construct: host or cells: kidney
T3 sequence (P08235 1-984): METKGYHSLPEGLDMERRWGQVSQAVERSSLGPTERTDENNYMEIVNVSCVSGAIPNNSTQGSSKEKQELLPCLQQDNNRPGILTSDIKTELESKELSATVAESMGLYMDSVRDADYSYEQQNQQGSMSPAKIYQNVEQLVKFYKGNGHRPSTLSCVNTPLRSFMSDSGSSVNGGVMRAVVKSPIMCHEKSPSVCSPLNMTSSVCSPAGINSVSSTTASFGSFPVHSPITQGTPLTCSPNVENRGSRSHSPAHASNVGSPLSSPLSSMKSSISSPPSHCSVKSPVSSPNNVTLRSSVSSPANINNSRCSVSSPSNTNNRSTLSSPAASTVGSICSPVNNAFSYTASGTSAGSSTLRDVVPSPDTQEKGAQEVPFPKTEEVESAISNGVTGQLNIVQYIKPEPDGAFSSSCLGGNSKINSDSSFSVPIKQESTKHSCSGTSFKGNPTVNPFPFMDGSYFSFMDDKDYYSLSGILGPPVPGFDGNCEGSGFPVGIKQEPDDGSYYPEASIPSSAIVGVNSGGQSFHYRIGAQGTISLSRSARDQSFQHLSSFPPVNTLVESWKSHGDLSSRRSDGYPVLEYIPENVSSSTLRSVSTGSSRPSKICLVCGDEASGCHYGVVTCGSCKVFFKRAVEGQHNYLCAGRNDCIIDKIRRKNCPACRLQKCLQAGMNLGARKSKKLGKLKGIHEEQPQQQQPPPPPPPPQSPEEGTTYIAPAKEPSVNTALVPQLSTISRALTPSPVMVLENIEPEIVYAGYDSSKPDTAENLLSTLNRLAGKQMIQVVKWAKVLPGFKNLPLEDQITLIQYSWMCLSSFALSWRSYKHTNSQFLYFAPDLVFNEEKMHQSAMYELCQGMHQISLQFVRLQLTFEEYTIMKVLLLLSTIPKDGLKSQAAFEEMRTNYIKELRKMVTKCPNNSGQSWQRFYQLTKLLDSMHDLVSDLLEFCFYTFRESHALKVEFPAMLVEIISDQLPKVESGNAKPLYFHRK

[1] = Dexamethasone 10^−8 M + test compound 10^−5 M, 4 h at 37° C.

CC#C[C@]1(O)CC[C@H]2[C@@H]3CCC4=CC(=O)CCC4=C3[C@@H](c3ccc(N(C)C)cc3)C[C@@]21C [RU-486, 11-(4-Dimethylamino-phenyl)-17-hydroxy-13-methyl-17-prop-1-ynyl-1,2,6,7,8,11,12,13,14,15,16,17-dodecahydro-cyclopenta[α]phenanthren-3-one]
% total apoptosis (rat thymocytes; Dexamethasone 10^−8 M + reference compound 10^−6 M, 4 h at 37° C.): 35.50%

C[C@]12CCC3C(C[C@H]4SC[C@@]35CCC(=O)C=C45)C1CCC2C(=O)CO (stereo partly drawn) [Compound 3, 21-Hydroxy-6,19-sulfanyl-4-pregnene-3,20-dione]
% total apoptosis (rat thymocytes; [1]): 37.50%

C[C@]12CCC3C(C[C@@H]4C5=CC(=O)CC[C@@]53C[S+]4[O-])C1CCC2C(=O)CO (stereo partly drawn) [Compound 4, 21-Hydroxy-6,19-sulfoxy-4-pregnene-3,20-dione]
reduction of the luciferase/β galactosidase ratio (glucocorticoid receptor): about 65% | % total apoptosis (rat thymocytes; [1]): 34.60%

C[C@@H]1C[C@H]2[C@@H]3CCC4=CC(=O)C=C[C@]4(C)[C@@]3(F)[C@@H](O)C[C@]2(C)[C@@]1(O)C(=O)CO [Dexamethasone]
% total apoptosis (rat thymocytes; Dexamethasone 10^−8 M alone, thymocytes 4 h at 37° C.): 40.40%

C[C@]12CCC3C(C[C@@H]4C5=CC(=O)CC[C@@]53CS4(=O)=O)C1CCC2C(=O)CO (stereo partly drawn) [Compound 5, 21-Hydroxy-6,19-sulfone-4-pregnene-3,20-dione]
% total apoptosis (rat thymocytes; [1]): 31.40%

C[C@]12CCC3C(C[C@H]4OC[C@@]35CCC(=O)C=C45)C1CCC2C(=O)CO (stereo partly drawn) [Compound 21OH-6OP, 21-hydroxy-6,19-oxidoprogesterone]
cross-reaction with uterus-PR (uterus-PR): does not substantially cross-react | cross-reaction with kidney-MR (kidney-MR): does not substantially cross-react | % total apoptosis (rat thymocytes; [1]): 38.10%
